Converted amounts (≈) assume the structure as drawn. The source made the active and inactive calls. The calls are words filed in the database; no cut-off is given here.
Key:
Escherichia coli [1] = experiment: Induction of filamentation in Escherichia coli DCR39 at 5 uM after 15 hrs; type: functional, organism-based
Escherichia coli [2] = experiment: Antimicrobial activity against AcrAB efflux pump-deficient Escherichia coli DCR39; type: functional
Escherichia coli [3] = experiment: Inhibition of GTPase activity of Escherichia coli FtsZ at 100 uM

MIC (Escherichia coli [2]) [µM]	inhibition (Escherichia coli [3]) [%]	Compound	Activity (Escherichia coli [1])
< 10	13.7	Cc1ccc(F)cc1S(=O)(=O)N[C@@H]1CCN(Cc2ccc(CC(C)C)cc2)C1	–
> 80	31.9	Cc1ccc(F)cc1S(=O)(=O)N[C@@H]1CCN(C(=O)c2ccc(OC(C)C)cc2)C1	–
> 80	–	Cc1ccc(F)cc1S(=O)(=O)N[C@@H]1CCN(Cc2ccc(C(=O)c3ccccc3)cc2)C1	–
< 10	9.4	Cc1ccc(F)cc1S(=O)(=O)N[C@@H]1CCN(Cc2ccc(-c3ccccc3)cc2)C1	–
> 80	24.9	Cc1ccc(F)cc1S(=O)(=O)N[C@@H]1CCN(Cc2ccc3[nH]ccc3c2)C1	–
> 80	26.9	Cc1ccc(F)cc1S(=O)(=O)N[C@@H]1CCN(Cc2ccc(C(F)(F)F)cc2)C1	–
> 80	29.9	Cc1ccc(F)cc1S(=O)(=O)N[C@@H]1CCN(Cc2cccc3[nH]ccc23)C1	–

Further lines, the compound ahead of its results:

Compound	MIC (Escherichia coli [2]) [µM]	inhibition (Escherichia coli [3]) [%]	Activity (Escherichia coli [1])
CC(C)Cc1ccc(CN2CC[C@@H](NS(=O)(=O)c3cc(Cl)ccc3Cl)C2)cc1	10 (≈ 4.41 µg/mL)	–	Active
Cc1ccc(F)cc1S(=O)(=O)N[C@@H]1CCN(Cc2ccc(Oc3ccccc3)cc2)C1	20 (≈ 8.81 µg/mL)	12.3	–
C#Cc1ccc(S(=O)(=O)N[C@@H]2CCN(Cc3ccc(CC(C)C)cc3)C2)cc1	< 12	–	–
CC(C)Cc1ccc(CN2CCC[C@@H](CNS(=O)(=O)c3cc(Cl)ccc3Cl)C2)cc1	20 (≈ 9.39 µg/mL)	–	–
Cc1ccc(F)cc1S(=O)(=O)N[C@@H]1CCN(Cc2ccc(Br)cc2)C1	> 80	31.5	–
C#Cc1ccc(S(=O)(=O)N[C@@H]2CCN(Cc3ccc(OC(C)C)c(N=[N+]=[N-])c3)C2)cc1	> 64	–	–
Cc1ccc(F)cc1S(=O)(=O)N[C@@H]1CCN(Cc2ccc3c(c2)OCO3)C1	> 80	14.6	–
C#Cc1ccc(S(=O)(=O)N[C@@H]2CCN(Cc3ccc(N=[N+]=[N-])cc3)C2)cc1	> 40	–	–
